The record followed here is patent US20250228239A1, “MOLECULES HAVING PESTICIDAL UTILITY, AND INTERMEDIATES, COMPOSITIONS, AND PROCESSES, RELATED THERETO” (priority 2024, published 2025).

Where two headings read alike, the source gives them in different places.

Holding throughout (type): in vivo
The subject of experiment [1] is Beet Armyworm (Spodoptera exigua, LAPHEG). The experiment is described as follows: Bioassays on Beet Armyworm (BAW), 128-well diet tray assay. The following applies: Spodoptera exigua. A digest of the protocol:
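One to five second-instar larvae per well on artificial diet surface-treated with 50 μg/cm^2 test molecule (applied in 90:10 acetone-water, dried), eight wells per compound. Trays held vented at 25° C., 14:10 light-dark for five to seven days; percent mortality averaged over the eight wells.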

Experiment [2] has as its system Cabbage Looper (Trichoplusia ni, TRIPNI). The experiment is described as follows: Bioassays on Cabbage Looper (CL), 128-well diet tray assay. Conditions: Trichoplusia ni. A digest of the protocol: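 Percent mortality, averaged across eight replicate wells, after second-instar larvae (1–5 per well) fed for five to seven days on diet dosed at 50 μg/cm^2. Compound was applied in acetone-water 90:10 and dried; trays kept vented at 25° C under 14:10 photoperiod.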

The subject of experiment [3] is Yellow Fever Mosquito (Aedes aegypti, AEDSAE). The following applies: for YFM rating: Yellow Fever Mosquito, Table ABC / ABC-DP rating; for YFM: Table ABC: Biological Results, species YFM. The method in brief: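 Larvae ~1 day old, in liver powder/water; compound from 4000 ppm DMSO stock diluted with water/acetone (90:10); 6 reps; lidded, RT, 3 d; mortality scored per well, rated.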

Where [4] appears, read: Beet Armyworm, Table ABC / ABC-DP rating, read-out: BAW rating.
The mark [5] stands for this setting: Cabbage Looper, Table ABC / ABC-DP rating, read-out: CL rating.
The mark [6] stands for this setting: Table ABC: Biological Results, species BAW, read-out: BAW.
Where [7] appears, read: Table ABC: Biological Results, species CL, read-out: CL.

On to `O=C(NNCc1ccccc1)c1cc(NC(=O)[C@H]2[C@H](c3cc(Cl)cc(Cl)c3)C2(Cl)Cl)ccc1Cl` (relative stereo) [F2545, trans-N-(3-(2-Benzylhydrazine-1-carbonyl)-4-chlorophenyl)-2,2-dichloro-3-(3,5-dichlorophenyl)cyclopropane-1-carboxamide], for which the pest or weed control at 50 µg/cm2 in experiment [1] (setting [4]) and in experiment [2] (setting [5]) was 50 to 100% each time. In experiment [3], the YFM rating entry was “A (80–100)”.
Regarding `Nc1c(F)ccc(NC(=O)c2cc(NC(=O)[C@H]3[C@H](c4cc(F)c(F)c(Br)c4)C3(Cl)Cl)ccc2Cl)c1F` (relative stereo) [F1044, trans-N-(3-Amino-2,4-difluorophenyl)-5-(3-(3-bromo-4,5-difluorophenyl)-2,2-dichlorocyclopropane-1-carboxamido)-2-chlorobenzamide], the pest or weed control at 50 µg/cm2 in experiment [1] (setting [6]) and in experiment [2] (setting [7]) was 50 to 100% in each case. The YFM entry in experiment [3] is recorded as “A (80–100)”.
In the case of `O=C(NCC(F)(F)C(F)(F)F)c1cc(NC(=O)[C@H]2[C@H](c3ccc(F)c(Cl)c3)C2(Cl)Cl)cc(F)c1Cl` (relative stereo) [F2035, trans-2-Chloro-5-(2,2-dichloro-3-(3-chloro-4-fluorophenyl)cyclopropane-1-carboxamido)-3-fluoro-N-(2,2,3,3,3-pentafluoropropyl)benzamide], the pest or weed control at 50 µg/cm2 in experiment [1] (setting [4]) and in experiment [2] (setting [5]) was 50 to 100% in each case. Besides, the YFM rating entry in experiment [3] is “A (80–100)”.
With `O=C(Nc1ccc(F)cc1F)c1cc(NC(=O)[C@H]2[C@@H](c3cc(F)c(Cl)c(C(F)(F)F)c3)C2(Cl)Cl)ccc1Cl` (relative stereo) [F1164, cis-2-Chloro-5-(2,2-dichloro-3-(4-chloro-3-fluoro-5-(trifluoromethyl)phenyl)cyclopropane-1-carboxamido)-N-(2,4-difluorophenyl)benzamide], the pest or weed control at 50 µg/cm2 in experiment [1] (setting [6]) and in experiment [2] (setting [7]) was 50 to 100% throughout. In addition, the YFM result in experiment [3] is reported as “A (80–100)”.
As to `O=C(Nc1ccc(F)c(NC(=O)C(F)(F)F)c1F)c1cc(NC(=O)[C@H]2[C@H](c3ccc(Cl)c(Br)c3)C2(Cl)Cl)ccc1Cl` (relative stereo) [F1358, trans-5-(3-(3-Bromo-4-chlorophenyl)-2,2-dichlorocyclopropane-1-carboxamido)-2-chloro-N-(2,4-difluoro-3-(2,2,2-trifluoroacetamido)phenyl)benzamide], the pest or weed control at 50 µg/cm2 in experiment [1] (setting [6]) and in experiment [2] (setting [7]) was 50 to 100% each time. Further, in experiment [3], the YFM entry is recorded as “A (80–100)”.
Turning to `O=C(Nc1ccc(F)cc1F)c1cc(NC(=O)[C@H]2[C@H](c3c(F)c(F)c(F)c(F)c3F)C2(Cl)Cl)ccc1Cl` (relative stereo) [F1009, trans-2-Chloro-5-(2,2-dichloro-3-(perfluorophenyl)cyclopropane-1-carboxamido)-N-(2,4-difluorophenyl)benzamide], the pest or weed control at 50 µg/cm2 in experiment [1] (setting [6]) and in experiment [2] (setting [7]) was 50 to 100% each time. The YFM entry in experiment [3] is “A (80–100)”.
Consider `O=C(NNc1ncccn1)c1cc(NC(=O)[C@H]2[C@H](c3cc(Cl)cc(Cl)c3)C2(Cl)Cl)ccc1Cl` (relative stereo) [F2508, trans-2,2-Dichloro-N-(4-chloro-3-(2-(pyrimidin-2-yl)hydrazine-1-carbonyl)phenyl)-3-(3,5-dichlorophenyl)cyclopropane-1-carboxamide], for which the pest or weed control at 50 µg/cm2 in experiment [1] (setting [4]) and in experiment [2] (setting [5]) was 50 to 100% in each case. The YFM rating result in experiment [3] is “A (80–100)”.
